Experimental data: patent US10690672B2, “Methods for breast cancer treatment” (GEORGE MASON UNIVERSITY, priority 2015, dated 2020)

What was measured:
breast cancer [1] = assay: Bayesian analysis (MCMC simulation on I-SPY 2 data): probability of superiority to control and of Phase III success; format: in vivo, human
Text: Bayesian analysis was completed using the MCMC simulation based on I-SPY 2 data with the following model: pCR˜HR+HER2+biomarker+treatment+treatment*HR+treatment*HER2+treatment*biomarker. No multiple comparison adjustments were applied. The Bayesian analytical engine developed by Don Berry (Yee et al J Clin Oncol. 2012 Dec. 20; 30(36):4584-6), is a mathematical approach that evaluates the clinical performance of a drug (in this case, neratinib) in both the treatment arm (in this case tumor shrinkage estimates by size changes observed by MRI), coupled with complete pathological response (pCR) as measured as the final response determinant, and the response of the predicate therapy in the control arm. This evaluation determined success of a given therapy for a Phase III trial, and in this case, it was determined that phosphorylation of EGFR at Y1173 was not only statistically significant at predicting or assessing response to neratinib in all patients regardless of hormone receptor levels and HER2 levels (HER2+, HER2− and HR+ and HR−), but when patients with high levels of phosphorylated EGFR (Y1173) were added to the HR−/HER2+ subgroup, the prevalence of ‘biomarker-positive’ patients increased by 50%, while increasing the predicted probability of Phase III success to 90%. Moreover, when EGFR Y1173 was used as a single marker, a statistically significant increase in Phase III success was determined for all patients compared to HER2+/HR− status as measured by immunohistochemical methods. (93% vs 87%).

breast cancer [2] = assay: I-SPY 2 TRIAL: pathological complete response (pCR) to neratinib plus standard chemotherapy vs concurrent control
Description: Subjects providing samples (pre-treatment biopsies) for studies described herein were characterized based on measurement of estrogen/hormone receptor (HR) and HER2 (c-erbB2), and were described by HER2−/HR−. HER2+/HR+. HER2+/HR−, HER2−/HR+ phenotypes. Response to treatment was determined by the amount of tumor shrinkage and a lack of appreciable tumor evident at surgery. A response of tumor shrinkage and/or lack of tumor when examined (such as at surgery) is referred to herein as “complete pathological response” (pCR), and has recently been deemed by the US FDA as an appropriate clinical endpoint for therapeutic approval. Neratinib is a therapeutic agent with a mechanism of action that is as a tyrosine kinase inhibitor that binds to and inhibits c-erbB2 and EGFR protein activity and the respective linked downstream pathways. […] Methods described herein may comprise obtaining measurements of the amounts proteins from a subject sample using a protein array technology developed by the inventors, and is referred to herein as “reverse phase protein microarray” (RPPA). This microarray allows for quantitative measurement of the amount of proteins and/or phosphorylated proteins in the tumor or cancerous cells from pretreatment sample, for example from biopsy specimens of women with Stage II/III breast cancer.
This example tested the hypothesis that the response to the pan-ERBB inhibitor, neratinib, was predicted by pre-treatment HER2-EGFR signaling. […] All patients received at least standard chemotherapy (which was comprised of 12 weekly cycles of paclitaxel (a taxane) therapy followed by 4 cycles of doxorubicin/cyclophosphamide (AC) therapy). For HER2+ patients, neratinib was administered in place of trastuzumab, and all HER2+ control arm patients received chemotherapy plus trastuzumab. 18 HER family signaling proteins were evaluated as biomarkers of neratinib response using reverse phase protein microarray (RPMA) data from pre-treatment laser capture microdissection (LCM) purified tumor epithelium.
Eighteen (18) protein/phosphoproteins biomarkers relating to HER family signaling were evaluated: AKT S473, AKT T308, EGFR, EGFR Y1068, EGFR Y1148, EGFR Y1173, EGFR Y992, ERBB2, ERBB2 Y1248, ERBB3 total, ERBB3 Y1289, ERK1/2 T202/Y204, Heregulin, mTOR, mTOR S2448, PI3K p85 Y458/p55 Y199, PTEN S380, and SHC Y317. This study assessed association between biomarker and response in the neratinib and control arms alone (likelihood ratio test), and relative performance between arms (biomarker×treatment interaction) using a logistic model. Analysis was also performed adjusting for HR/HER2 status.

CCOc1cc2ncc(C#N)c(Nc3ccc(OCc4ccccn4)c(Cl)c3)c2cc1NC(=O)/C=C/CN(C)C [Neratinib]
Prob > CTRL (probability of Neratinib superiority to control) (breast cancer [1]; EGFR Y1173 High): 0.99
Prob Ph III Success (breast cancer [1]; EGFR Y1173 High): 0.93
probability of Phase III success (breast cancer [1]; EGFR Y1173 used as a single marker, all patients): 93%
probability of Phase III success (breast cancer [1]; HER2+/HR− status by immunohistochemical methods): 87%
Prob > CTRL (probability of Neratinib superiority to control) (breast cancer [1]; HR−/HER2+): 0.97
Prob Ph III Success (breast cancer [1]; HR−/HER2+): 0.87
Prob > CTRL (probability of Neratinib superiority to control) (breast cancer [1]; HR−/HER2+ AND EGFR Y1173 High): 0.99
Prob Ph III Success (breast cancer [1]; HR−/HER2+ AND EGFR Y1173 High): 0.95
Prob > CTRL (probability of Neratinib superiority to control) (breast cancer [1]; HR−/HER2+ OR EGFR Y1173 High): 0.99
Prob Ph III Success (breast cancer [1]; HR−/HER2+ OR EGFR Y1173 High): 0.9
predicted probability of Phase III success (breast cancer [1]; patients with high phosphorylated EGFR (Y1173) added to the HR−/HER2+ subgroup): 90%
OR associated with treatment (pCR) (breast cancer [2]; EGFR Y1173 High patients added to the graduating HR−/HER2+ subset): 3.2
odds ratio (OR) of pCR between EGFR Y1173 groups in the N relative to control arm (breast cancer [2]; EGFR Y1173 High vs Low, neratinib arm relative to control arm): 10.1
clinical response (breast cancer [2]; HER2+/HR− subtype): statistically significant clinical response
pCR rate (breast cancer [2]; HR−/HER2+ patients, EGFR Y1173 High, neratinib arm): 12/18 (67%)
pCR rate (breast cancer [2]; HR−/HER2+ patients, EGFR Y1173 Low, neratinib arm (neratinib in place of trastuzumab + paclitaxel then AC)): 0/4 (0%)
OR associated with treatment (pCR) (breast cancer [2]; HR−/HER2+ signature): 2.1
trial outcome (graduation) (breast cancer [2]; I-SPY 2 TRIAL, HR−/HER2+ signature): graduated
pCR rate (breast cancer [2]; Not HR−/HER2+ patients, EGFR Y1173 High, neratinib arm): 24/57 (42%)
pCR rate (breast cancer [2]; Not HR−/HER2+ patients, EGFR Y1173 Low, neratinib arm): 3/27 (11%)
pCR by subtype (breast cancer [2]; regardless of HER2/HR status): pCR was observed in every subtype
